# Where a name gives a salt, the structure may show the parent alone.
# Molecular target: USP7 (Homo sapiens, UniProt Q93009)
# Assay: biochemical
# Design: Ub-AMC hydrolysis by recombinant USP7 (20 nM), 30 min pre-incubation, fluorescence read-out
# Conditions: read-out: % Inhibition at 50 μM
# Chain of USP7 (Q93009 whole entry): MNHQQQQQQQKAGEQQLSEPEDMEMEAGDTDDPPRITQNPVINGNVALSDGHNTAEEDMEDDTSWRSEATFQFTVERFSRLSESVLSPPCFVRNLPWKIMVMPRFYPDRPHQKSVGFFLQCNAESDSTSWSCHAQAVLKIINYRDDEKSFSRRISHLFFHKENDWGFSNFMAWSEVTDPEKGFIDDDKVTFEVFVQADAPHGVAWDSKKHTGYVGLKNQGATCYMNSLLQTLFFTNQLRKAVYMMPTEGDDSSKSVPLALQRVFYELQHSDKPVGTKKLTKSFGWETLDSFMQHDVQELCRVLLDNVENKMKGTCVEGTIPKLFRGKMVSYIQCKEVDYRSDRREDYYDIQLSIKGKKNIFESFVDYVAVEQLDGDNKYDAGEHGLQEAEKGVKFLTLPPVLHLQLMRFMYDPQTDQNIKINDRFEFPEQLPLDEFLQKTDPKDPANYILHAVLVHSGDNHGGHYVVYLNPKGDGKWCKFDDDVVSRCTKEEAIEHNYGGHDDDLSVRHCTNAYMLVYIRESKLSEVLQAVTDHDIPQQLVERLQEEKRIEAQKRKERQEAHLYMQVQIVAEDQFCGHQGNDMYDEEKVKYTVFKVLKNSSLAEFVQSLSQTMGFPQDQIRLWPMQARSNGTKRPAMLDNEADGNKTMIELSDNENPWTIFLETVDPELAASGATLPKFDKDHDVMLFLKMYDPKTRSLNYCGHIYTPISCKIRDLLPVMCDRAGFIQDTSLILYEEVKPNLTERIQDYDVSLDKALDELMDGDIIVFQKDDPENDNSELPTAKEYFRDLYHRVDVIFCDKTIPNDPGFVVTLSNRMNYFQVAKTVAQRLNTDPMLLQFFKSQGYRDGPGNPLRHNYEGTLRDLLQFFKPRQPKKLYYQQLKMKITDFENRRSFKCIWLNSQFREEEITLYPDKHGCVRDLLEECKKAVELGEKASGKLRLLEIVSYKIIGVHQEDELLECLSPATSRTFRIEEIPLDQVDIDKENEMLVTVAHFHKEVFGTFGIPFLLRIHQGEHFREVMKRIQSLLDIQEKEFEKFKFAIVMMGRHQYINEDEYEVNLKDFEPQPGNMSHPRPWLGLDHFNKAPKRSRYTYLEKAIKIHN
smiles,measurement,value
CCC[C@@H]1C[C@@H](C(=O)N[C@@H]([C@H]2O[C@H](SC)[C@H](O)[C@@H](O)[C@H]2O)[C@@H](C)O)N(C)C1 [Lincomycin],inhibition at 50 µM,< 5%
COc1cccc2c1C(=O)c1c(O)c3c(c(O)c1C2=O)C[C@@](O)(C(=O)CO)C[C@@H]3O[C@H]1C[C@H](N)[C@H](O)[C@H](C)O1 [Doxorubicin HCl],inhibition at 50 µM,< 5%
CS(=O)(=O)Nc1ccc([N+](=O)[O-])cc1Oc1ccccc1 [Nimesulide],inhibition at 50 µM,< 5%
N[C@@H]1C[C@H]1c1ccccc1 (racemic) [Tranylcypromine],inhibition at 50 µM,< 5%
C[C@H]1C[C@@H]2[C@H]([C@@H](O)C[C@@]3(C)[C@H]2CC[C@]3(O)C(=O)CO)[C@@]2(C)C=CC(=O)C=C12 [Methylprednisolone],inhibition at 50 µM,< 5%
Cc1cccc(C)c1NC1=NCCCS1 [Xylazine HCl],inhibition at 50 µM,< 5%
CCC(=O)O[C@@H](O[P@](=O)(CCCCc1ccccc1)CC(=O)N1C[C@H](C2CCCCC2)C[C@H]1C(=O)O)C(C)C [Fosinopril],inhibition at 50 µM,< 5%
Nc1ccn([C@@H]2O[C@H](CO)[C@@H](O)[C@@H]2O)c(=O)n1 [Cytarabine],inhibition at 50 µM,< 5%
C[C@@H]1CN(c2c(F)c(N)c3c(=O)c(C(=O)O)cn(C4CC4)c3c2F)C[C@H](C)N1 [Sparfloxacin],inhibition at 50 µM,< 5%
C#C[C@]1(O)CC[C@H]2[C@@H]3CCC4=CC(=O)CCC4=C3C=C[C@@]21CC [Gestrinone],inhibition at 50 µM,< 5%
CN1CCN(CCCN2c3ccccc3Sc3ccc(C(F)(F)F)cc32)CC1 [Trifluoperazine 2HCl],inhibition at 50 µM,< 5%
CCOc1nc2cccc(C(=O)O)c2n1Cc1ccc(-c2ccccc2-c2nnn[nH]2)cc1 [Candesartan],inhibition at 50 µM,< 5%
O=C(NCCNCC(O)COc1ccc(O)cc1)N1CCOCC1 (centres unmarked) [Xamoterol hemifumarate],inhibition at 50 µM,< 5%
CN(C)C(=O)Oc1cccc([N+](C)(C)C)c1 [Neostigmine Br],inhibition at 50 µM,< 5%
COc1cc(NC(C)CCCN)c2ncccc2c1 (centres unmarked) [Primaquine phosphate],inhibition at 50 µM,< 5%
C#CCN(C)C(C)Cc1ccccc1 (centres unmarked) [Deprenyl],inhibition at 50 µM,< 5%
CC(=O)O[C@]1(C(C)=O)CC[C@H]2[C@@H]3C=C(Cl)C4=CC(=O)[C@@H]5C[C@@H]5[C@]4(C)[C@H]3CC[C@@]21C [Cyproterone acetate],inhibition at 50 µM,28.6%
C[C@H]1c2cccc(O)c2C(=O)C2=C(O)[C@]3(O)C(=O)C(C(N)=O)=C(O)[C@@H](N(C)C)[C@@H]3[C@@H](O)[C@@H]21 [Doxycycline HCl],inhibition at 50 µM,< 5%
CCN[C@H]1C[C@H](C)S(=O)(=O)c2sc(S(N)(=O)=O)cc21 [Dorzolamide],inhibition at 50 µM,< 5%
O=C1Nc2ccc(Cl)cc2[C@@](C#CC2CC2)(C(F)(F)F)O1 [Efavirenz],inhibition at 50 µM,29.8%
CCCCNC(=O)NS(=O)(=O)c1ccc(C)cc1 [Tolbutamide],inhibition at 50 µM,< 5%
"O=C(O)Cc1ccccc1Nc1c(Cl)cccc1Cl [Diclofenac, Na]",inhibition at 50 µM,< 5%
COc1ncnc(NS(=O)(=O)c2ccc(N)cc2)c1OC [Sulfadoxine],inhibition at 50 µM,< 5%
CC(C)NCC(O)c1ccc2ccccc2c1 (centres unmarked) [Pronethalol HCl],inhibition at 50 µM,8.3%
Cc1ccc(/C(=C\CN2CCCC2)c2ccccn2)cc1 [Trans-triprolidine HCl],inhibition at 50 µM,< 5%
C[C@](N)(Cc1ccc(O)c(O)c1)C(=O)O [Methyldopa],inhibition at 50 µM,< 5%
C[C@]12Cc3c[nH]nc3C[C@@H]1CC[C@@H]1[C@@H]2CC[C@@]2(C)[C@H]1CC[C@]2(C)O [Stanozolol],inhibition at 50 µM,< 5%
COc1c(C)c2c(c(O)c1C/C=C(\C)CCC(=O)O)C(=O)OC2 [Mycophenolic acid],inhibition at 50 µM,< 5%
CO[C@H]1C[C@H](O[C@H]2[C@H](C)[C@@H](O[C@@H]3O[C@H](C)C[C@H](N(C)C)[C@H]3OC(C)=O)[C@@H](C)C[C@@]3(CO3)C(=O)[C@H](C)[C@@H](OC(C)=O)[C@@H](C)[C@@H](C)OC(=O)[C@@H]2C)O[C@@H](C)[C@@H]1OC(C)=O [Troleandomycin],inhibition at 50 µM,< 5%
COc1ccc(C(=O)N2CCCC2=O)cc1 [Aniracetam],inhibition at 50 µM,< 5%
C[C@]12CC[C@@H]3c4ccc(O)cc4C[C@@H](CCCCCCCCC[S+]([O-])CCCC(F)(F)C(F)(F)F)[C@H]3[C@@H]1CC[C@@H]2O (some centres unmarked) [Fulvestrant],inhibition at 50 µM,< 5%
O=C(O)Cc1ccccc1 [Sodium phenylacetate],inhibition at 50 µM,< 5%
CCC(C)(C)c1ccc(CC(C)CN2C[C@@H](C)O[C@@H](C)C2)cc1 (some centres unmarked) [Amorolfine],inhibition at 50 µM,< 5%
CO[C@H](C(=O)[C@@H](O)[C@@H](C)O)[C@@H]1Cc2cc3cc(O[C@H]4C[C@@H](O[C@@H]5C[C@@H](O)[C@H](O)[C@@H](C)O5)[C@H](O)[C@@H](C)O4)c(C)c(O)c3c(O)c2C(=O)[C@H]1O[C@H]1C[C@@H](O[C@@H]2C[C@@H](O)[C@@H](O[C@@H]3C[C@](C)(O)[C@H](O)[C@@H](C)O3)[C@@H](C)O2)[C@H](O)[C@@H](C)O1 [Plicamycin],inhibition at 50 µM,< 5%
C=C[C@H]1CN2CC[C@H]1C[C@H]2[C@H](O)c1ccnc2ccc(OC)cc12 [Quinine],inhibition at 50 µM,16.9%
CN(Cc1ccc(C(C)(C)C)cc1)Cc1cccc2ccccc12 [Butenafine],inhibition at 50 µM,24.9%
CC(C)CN(C[C@@H](O)[C@H](Cc1ccccc1)NC(=O)O[C@H]1CCOC1)S(=O)(=O)c1ccc(N)cc1 [Amprenavir],inhibition at 50 µM,< 5%
CCCCCCCCCCCCCCCC(=O)O[C@@H]1[C@@H](O)[C@@H](O)[C@@H]([C@H](NC(=O)[C@@H]2C[C@@H](CCC)CN2C)[C@H](C)Cl)O[C@@H]1SC [Clindamycin palmitate],inhibition at 50 µM,< 5%
NC(=O)OCC(COC(N)=O)c1ccccc1 [Felbamate],inhibition at 50 µM,< 5%
CC(C)(Oc1ccc(CCNC(=O)c2ccc(Cl)cc2)cc1)C(=O)O [Bezafibrate],inhibition at 50 µM,< 5%
Cc1cnc(C(=O)O)c[n+]1[O-] [Acipimox],inhibition at 50 µM,< 5%
COc1ccc(C(=O)c2c(C)n(CCN3CCOCC3)c3ccccc23)cc1 [Pravadoline],inhibition at 50 µM,< 5%
C[C@H](CS)C(=O)N1CCC[C@H]1C(=O)O [Captopril],inhibition at 50 µM,< 5%
CC[C@]1(O)C[C@@H]2CN(CCc3c([nH]c4ccccc34)[C@@](C(=O)OC)(c3cc4c(cc3OC)N(C)[C@H]3[C@@](O)(C(N)=O)[C@H](O)[C@]5(CC)C=CCN6CC[C@]43[C@@H]65)C2)C1 [Vindesine],inhibition at 50 µM,< 5%
O=C(O[C@@H]1C[C@@H]2C[C@H]3C[C@H](C1)N2CC3=O)c1c[nH]c2ccccc12 [Dolasetron],inhibition at 50 µM,< 5%
CC(CN1c2ccccc2Sc2ccccc21)N(C)C (centres unmarked) [Promethazine HCl],inhibition at 50 µM,8.9%
CC1(C)CC[C@]2(C(=O)O)CC[C@]3(C)C(=CC[C@@H]4[C@@]5(C)CC[C@H](O)C(C)(C)[C@@H]5CC[C@]43C)[C@@H]2C1 [Oleanolic acid],inhibition at 50 µM,69.2%
Cc1cnc(NC(=O)C2=C(O)c3ccccc3S(=O)(=O)N2C)s1 [Meloxicam],inhibition at 50 µM,< 5%
O=C1c2c(O)ccc(O)c2C(=O)c2c(NCCNCCO)ccc(NCCNCCO)c21 [Mitoxantrone 2HCl],inhibition at 50 µM,< 5%
CC1=C(/C=C/C(C)=C/C=C/C(C)=C/C=C/C=C(C)/C=C/C=C(C)/C=C/C2=C(C)C(=O)CCC2(C)C)C(C)(C)CCC1=O [Canthaxanthin],inhibition at 50 µM,< 5%
O=C(O)c1cc(/N=N/c2ccc(S(=O)(=O)Nc3ccccn3)cc2)ccc1O [Sulfasalazine],inhibition at 50 µM,< 5%
CN(C)C(=O)C(CCN1CCC(O)(c2ccc(Cl)cc2)CC1)(c1ccccc1)c1ccccc1 [Loperamide],inhibition at 50 µM,< 5%
C[C@@H]1C(=O)O[C@H]2C[C@@]34[C@H]5C[C@@H](C(C)(C)C)[C@]36[C@@H](OC(=O)[C@@H]6O)O[C@@]4(C(=O)O5)[C@]21O [Ginkgolide a],inhibition at 50 µM,< 5%
Cc1ccc(C(=O)c2cc(O)c(O)c([N+](=O)[O-])c2)cc1 [Tolcapone],inhibition at 50 µM,28.6%
CS(=O)(=O)CCNCc1ccc(-c2ccc3ncnc(Nc4ccc(OCc5cccc(F)c5)c(Cl)c4)c3c2)o1 [Lapatinib],inhibition at 50 µM,< 5%
N=c1ccn2c(n1)O[C@H]1[C@H](O)[C@@H](CO)O[C@H]12 [Cyclocytidine HCl],inhibition at 50 µM,29.5%
N=C(N)NC(=N)N1CCOCC1 [Moroxydine HCl],inhibition at 50 µM,17.2%
CN(C/C=C/C#CC(C)(C)C)Cc1cccc2ccccc12 [Terbinafine HCl],inhibition at 50 µM,8.6%
COC(=O)CCc1ccc(OCC(O)CNC(C)C)cc1 (centres unmarked) [Esmolol],inhibition at 50 µM,< 5%
C[C@H]1[C@H](C)CC[C@]2(C(=O)O)CC[C@]3(C)C(=CC[C@@H]4[C@@]5(C)C[C@@H](O)[C@H](O)C(C)(C)[C@@H]5CC[C@]43C)[C@H]12 [Corosolic acid],inhibition at 50 µM,43.2%
C[C@@H]1CCC[C@H](C)N1NC(=O)c1ccc(Cl)c(S(N)(=O)=O)c1 [Clopamide],inhibition at 50 µM,< 5%
CN[C@@H]1[C@H](O[C@H]2[C@H](O[C@H]3[C@H](O)[C@@H](O)[C@H](N=C(N)N)[C@@H](O)[C@@H]3N=C(N)N)O[C@@H](C)[C@]2(O)C=O)O[C@@H](CO)[C@H](O)[C@H]1O [Streptomycin sulfate],inhibition at 50 µM,< 5%
c1ccc([C@H]2CN3CCSC3=N2)cc1 [Levamisole HCl],inhibition at 50 µM,< 5%
CCN1CCC[C@H]1CNC(=O)c1c(O)c(Cl)cc(Cl)c1OC [Raclopride l-tartrate s(-)],inhibition at 50 µM,< 5%
COc1ccc(C(CN(C)C)C2(O)CCCCC2)cc1 (centres unmarked) [Venlafaxine HCl],inhibition at 50 µM,< 5%
C=CCc1ccccc1OCC(O)CNC(C)C (centres unmarked) [Alprenolol HCl],inhibition at 50 µM,< 5%
CS(=O)(=O)c1ccc([C@H](O)[C@@H](COC(=O)CN)NC(=O)C(Cl)Cl)cc1 [Thiamphenicol glycinate],inhibition at 50 µM,< 5%
CC(C)(C)NCC(O)c1cc(Cl)c(N)c(Cl)c1 (centres unmarked) [Clenbuterol],inhibition at 50 µM,< 5%
C#C[C@]1(O)CC[C@H]2[C@@H]3CCC4=CC(=O)CC[C@@H]4[C@H]3CC[C@@]21CC [Levonorgestrel],inhibition at 50 µM,< 5%
CCCCc1ncc(/C=C(\Cc2cccs2)C(=O)O)n1Cc1ccc(C(=O)O)cc1 [Eprosartan],inhibition at 50 µM,6.2%
CNC[C@H](O)c1ccc(O)c(O)c1 [Epinephrine-(+)-tartrate l (-)],inhibition at 50 µM,< 5%

# — publication PMC5363571 (Oncotarget, 2016)
